In patent US20050070872A1, “Blood bag system and method of inactivating pathogenic microorganisms” (priority 2001, published 2005):
Like-named read-outs stand apart in the source and are kept apart here.

Assays:
Simian Virus 40 (SV-40) [1] = assay: Virus inactivation of SV-40 in RC-MAP using the blood bag system (Example 2), TCID50 on CV-1 cells; type: cell-based; conditions: for inactivation effect (positive control TCID50 minus inactivated solution TCID50): 7 hours; for TCID50 of the inactivated solution: room temperature (in the dark) 7 hours, positive control 6.0 log10
Method: Blood was collected from healthy humans and RC-MAP (concentrated erythrocyte preparation) was prepared, which was introduced into the blood bag 1 (400-mL CPDA blood bag) in the blood bag system shown in FIG. 2. Thereafter, 10^8 TCID50/mL (50% infection endpoint) of SV-40 per 2 mL of RC-MAP was added to the blood bag 1 from the air-bleeding tube 10 by using a syringe, and the blood bag 1 was gently stirred.
Thereafter, the blood bag was stirred gently, and the resultant was allowed to react at room temperature (in the dark) for 7 hours to effect inactivation. After completion of the inactivation, 4 mL of the inactivated solution was sampled from the blood bag 1 and centrifuged at 3,000 rpm for 1 minute. The supernatant was used for the evaluation of virus inactivation.
(§1) Evaluation of virus inactivation was performed by TCID50 using a 96-well microplate. In a 25-cm^2 cell culture flask, a CV-1 cell (simian kidney derived cell), which is a proliferating cell of SV-40, was cultivated in a 10% fetal bovine serum-added MEM medium for 3 days for proliferation. Thereafter, the cells were floated with 0.5 mL of 0.05% trypsin-EDTA, to prepare a cell suspension in 25 mL of the 10% fetal bovine serum-added MEM medium.
(§2) After 90 μL of the cell suspension was added to each well of the 96-well microplate, 10 μL of the reaction mixture (the above-mentioned supernatant) was added to each well of the first column of the 96-well microplate and pipetting was performed to stir the resultant. Further, 10 μL of the solution in each well of the first column was added to each well of the second column of the microplate to perform 10-fold gradual dilution operation. This operation was repeated up to the wells of the twelfth column of the microplate. The microplate was incubated in a 5% carbon dioxide gas incubator at 37° C. for 10 days. Then, a cytopathic effect (CPE) by SV-40 was observed using an optical microscope, and TCID50 were calculated as logarithmic values (log10).
(§3) At the same time, TCID50 of a positive control, in which a phosphate buffer was added instead of the platinum compound, was calculated as a logarithmic value (log10). A value obtained by subtracting TCID50 of the inactivated solution from TCID50 of the positive control was defined as a killing effect (inactivation effect).
In FIG. 4, the inactivation effect means a value obtained by subtracting TCID50 of the inactivated solution (logarithmic value (log10)) from TCID50 of the above-mentioned positive control (logarithmic value (log10)).

Simian Virus 40 (SV-40) [2] = assay: Virus inactivation of SV-40 in RC-MAP (Example 1), TCID50 on CV-1 cells; type: cell-based; conditions: for inactivation effect (positive control TCID50 minus inactivated solution TCID50): 7 hours; for TCID50 of the inactivated solution: room temperature (in the dark) 7 hours, positive control 6.5 log10
Method: In a 400-mL CPDA blood bag in the blood bag system shown in FIG. 1, RC-MAP (concentrated erythrocyte preparation) was prepared from blood collected from healthy humans. Thereafter, 2 mL of RC-MAP was sampled in a 15-mL centrifuging tube aseptically, and 2 mL of 10^8 TCID50/mL (50% infection end point) SV-40 was added thereto, followed by gentle stirring. […] After completion of the inactivation, the inactivated solution was centrifuged at 3,000 rpm for 1 minute and the supernatant was used for the evaluation of virus inactivation.
as §1, §2
as §3, with “effect.” for “effect (inactivation effect).”
In FIG. 3, the inactivation effect means a value obtained by subtracting TCID50 of the inactivated solution (logarithmic value (log10)) from TCID50 of the above-mentioned positive control (logarithmic value (log10)).

[3] = tested on: initial culture cells of Ehrlich cancer; conditions: cited from earlier work
[4] = tested on: Human Cytomegalovirus (HCMV); assay: Virus inactivation of HCMV in RC-MAP (Example 3), TCID50 on HEL cells; type: cell-based; conditions: 1.67 mM solution, 7 hours
Method: In the blood bag 1 (a 400-mL CPDA blood bag) in the blood bag system shown in FIG. 1, RC-MAP (concentrated erythrocyte preparation) was prepared from blood collected from healthy humans. Thereafter, 2 mL of RC-MAP was sampled in a 15-mL centrifuging tube aseptically, and 2 mL of 10^7 TCID50/mL HCMV was added thereto, followed by gentle stirring. […] After completion of the inactivation, the inactivated solution was centrifuged at 3,000 rpm for 1 minute and the supernatant was used for the evaluation of virus inactivation.
Evaluation of virus inactivation was performed by TCID50 using a 96-well microplate. In a 25-cm^2 cell culture flask, a HEL cell (primary human embryonic lung fibroblasts cell), which is a proliferating cell of HCMV, was cultivated in a 10% fetal bovine serum-added MEM medium for 3 days for proliferation. […]
After 90 μL of this cell suspension was added to each well of the 96-well microplate, 10 μL of the solution (the above-mentioned supernatant) was added to each well of the first column of the 96-well microplate and pipetting was performed to stir the resultant. […] Then, a cytopathic effect (CPE) by HCMV was observed using an optical microscope, and TCID50 was calculated as a logarithmic value (log10) . At the same time, TCID50 of a positive control, in which a phosphate buffer was added instead of the platinum compound, was calculated as a logarithmic value (log10).

Yersinia enterocolitica [5] = assay: Bacteria inactivation of Yersinia enterocolitica in RC-MAP (Example 5), colony count; type: cell-based; conditions: for Number of survival bacteria: RC-MAP, 7 hours
Method: After gentle stirring, the resultant was allowed to react at room temperature (in the dark) for 7 hours to effect inactivation.
This was cultivated at 31° C. for 2 days.
Note that solution to which no cisplatin was added was defined as a positive control. A bacteria inactivation effect was defined by a value obtained by subtracting the number of survival bacteria (logarithmic value (log10)) in cisplatin-added inactivated solution from the number of survival bacteria (logarithmic value (log10)) in the positive control.

[6] = tested on: Mouse Hepatitis Virus (MHV); assay: Virus inactivation of MHV in RC-MAP (Example 4), TCID50 on DBT cells; type: cell-based; conditions: 1.67 mM solution, 7 hours
Method: Thereafter, 2 mL of RC-MAP was sampled in a 15-mL centrifuging tube aseptically, and 2 mL of 10^7 TCID50/mL MHV was added thereto, followed by gentle stirring. […] After completion of the inactivation, the inactivated solution was centrifuged at 3,000 rpm for 1 minute and the supernatant was used for the evaluation of virus inactivation.
Evaluation of virus inactivation was performed by TCID50 using a 96-well microplate. In a 25-cm^2 cell culture flask, a DBT cell, which is a proliferating cell of MHV, was cultivated in a 5% fetal bovine serum-added MEM medium for 3 days for proliferation. Thereafter, the cells were floated with 0.5 mL of 0.05% trypsin-EDTA, to prepare a cell suspension in 25 mL of the 10% fetal bovine serum-added MEM medium.
After 90 μL of this cell suspension was added to each well of the 96-well microplate, 10 μL of the solution was added to each well of the first column of the 96-well microplate and pipetting was performed to stir the resultant. […] Then, a cytopathic effect (CPE) by MHV was observed using an optical microscope, and TCID50 was calculated as a logarithmic value (log10). At the same time, TCID50 of a positive control, in which a phosphate buffer was added instead of the platinum compound, was calculated as a logarithmic value (log10). […]

Yersinia enterocolitica [7] = tested on: Yersinia enterocolitica
Method: In the blood bag 1 (400-mL CPDA blood bag) of the blood bag system shown in FIG. 1, RC-MAP (concentrated erythrocyte preparation) was prepared from blood collected from healthy humans. […] To the resultant was added 2 mL of a 168 mM L-methionine solution having dissolved L-methionine in physiological saline, for a reaction at room temperature for 30 minutes.
Similarly, as neutralizing agents, L-methionine solutions having concentrations of 84 mM, 42 mM, 21 mM, 10.5 mM, 5.25 mM, 2.63 mM, and 1.31 mM, respectively, obtained by dissolving L-methionine in physiological saline or sodium thiosulfate solutions having concentrations of 168 mM, 84 mM, 42 mM, 21 mM, 10.5 mM, 5.25 mM, 2.63 mM, and 1.31 mM, respectively, obtained by dissolving sodium thiosulfate in physiological saline were used to effect a reaction. […] Thereafter, 10 μL of 10^8 CFU/mL Yersinia enterocolitica was added to each solution, and the number of bacterial cells after stirring was measured.
Measurement of bacterial cells was conducted on solutions obtained by repeating 3 times the 10-fold gradual dilution operation consisting of adding 1 mL of the inactivated solution to 9 mL of sterilized physiological saline, stirring the mixture by using a touch mixer, and further adding 1 mL of the resultant to 9 mL of physiological saline for dilution. […], 1 mL or 100 μL of the diluted solution in each stage was mixed in a petri dish having a diameter of 9 cm and containing 15 mL soybean casein digest agar medium. This was cultivated at 31° C. for 2 days. The number of colonies emerged was defined as number of survival bacteria, and a logarithmic value (log10) thereof was defined as a neutralization effect.

SV-40 = conditions: 3.5 mM cisplatin solution then 175 mM sodium thiosulfate solution
Method: as §1
as §2, with “[…] A value obtained by subtracting TCID50 of the inactivated solution from TCID50 of the positive control was defined as” for “Then,”, “killing effect.” for “cytopathic effect (CPE) by SV-40 was observed using an optical microscope, and TCID50 were calculated as logarithmic values (log10).”

## N.N.O=C([O-])C1(C(=O)[O-])CCC1.[Pt+2] [carboplatin]
Simian Virus 40 (SV-40) [1]; 3.5 mM solution
  inactivation effect (positive control TCID50 minus inactivated solution TCID50): 1.5 log10
  TCID50 of the inactivated solution: 4.5 log10
Simian Virus 40 (SV-40) [2]; 3.5 mM solution
  inactivation effect (positive control TCID50 minus inactivated solution TCID50): 1.00 log10
  TCID50 of the inactivated solution: 5.50 log10

## N.N.[Cl][Pt][Cl] [cisplatin]
Simian Virus 40 (SV-40) [1]; 1.67 mM solution
  inactivation effect (positive control TCID50 minus inactivated solution TCID50): 5.0 log10
  TCID50 of the inactivated solution: 1.0 log10
Simian Virus 40 (SV-40) [2]; 1.67 mM solution
  inactivation effect (positive control TCID50 minus inactivated solution TCID50): 5.25 log10
  TCID50 of the inactivated solution: 1.25 log10
[3]
  effective concentration against cancer cells (antiviral activity (IC50)): 0.25 µg/mL
[4]
  HCMV killed (anti-HCMV inactivation effect): 4.00 log10
Yersinia enterocolitica [5]; cisplatin 0.0209 mM
  Bacteria killing effect: 0.18 log10
  Number of survival bacteria: 4.82 log10
Yersinia enterocolitica [5]; cisplatin 0.042 mM
  Bacteria killing effect: 0.48 log10
  Number of survival bacteria: 4.52 log10
Yersinia enterocolitica [5]; cisplatin 0.083 mM
  Bacteria killing effect: 1.21 log10
  Number of survival bacteria: 3.79 log10
Yersinia enterocolitica [5]; cisplatin 0.17 mM
  Bacteria killing effect: 2.20 log10
  Number of survival bacteria: 2.80 log10
Yersinia enterocolitica [5]; cisplatin 0.33 mM
  Bacteria killing effect: 2.73 log10
  Number of survival bacteria: 2.27 log10
Yersinia enterocolitica [5]; cisplatin 0.67 mM
  Bacteria killing effect: 3.52 log10
  Number of survival bacteria: 1.48 log10
Yersinia enterocolitica [5]; cisplatin 1.33 mM
  Bacteria killing effect: 4.94 log10
Yersinia enterocolitica [5]; cisplatin 1.33 mM, positive control 5.00 log10
  Number of survival bacteria: 0.06 log10
[6]
  MHV killed (MHV inactivation effect): 4.00 log10

## CSCC[C@H](N)C(=O)O [methionine, L-methionine]
Yersinia enterocolitica [7]; methionine 0.44 mM after 4.00 mM cisplatin solution
  Number of survival bacteria (neutralization effect): 0.34 log10
Yersinia enterocolitica [7]; methionine 0.88 mM after 4.00 mM cisplatin solution
  Number of survival bacteria (neutralization effect): 0.73 log10
Yersinia enterocolitica [7]; methionine 1.75 mM after 4.00 mM cisplatin solution
  Number of survival bacteria (neutralization effect): 0.89 log10
Yersinia enterocolitica [7]; methionine 3.5 mM after 4.00 mM cisplatin solution
  Number of survival bacteria (neutralization effect): 1.22 log10
Yersinia enterocolitica [7]; methionine 7 mM after 4.00 mM cisplatin solution
  Number of survival bacteria (neutralization effect): 1.43 log10
Yersinia enterocolitica [7]; methionine 14 mM after 4.00 mM cisplatin solution
  Number of survival bacteria (neutralization effect): 1.87 log10
Yersinia enterocolitica [7]; methionine 28 mM after 4.00 mM cisplatin solution
  Number of survival bacteria (neutralization effect): 3.36 log10
Yersinia enterocolitica [7]; methionine 56 mM after 4.00 mM cisplatin solution, 30 minutes, same as without cisplatin
  Number of survival bacteria (neutralization effect): 5.1 log10

## [NH2][Pt]1([NH2])[O]CC(=O)[O]1 [nedaplatin]
Simian Virus 40 (SV-40) [1]; 3.5 mM solution
  inactivation effect (positive control TCID50 minus inactivated solution TCID50): 3.5 log10
  TCID50 of the inactivated solution: 2.5 log10
Simian Virus 40 (SV-40) [2]; 3.5 mM solution
  inactivation effect (positive control TCID50 minus inactivated solution TCID50): 4.25 log10
  TCID50 of the inactivated solution: 2.25 log10

## O=S([O-])([O-])=S.[Na+].[Na+] [sodium thiosulfate]
Yersinia enterocolitica [7]; sodium thiosulfate 0.44 mM after 4.00 mM cisplatin solution
  Number of survival bacteria (neutralization effect): 0.44 log10
Yersinia enterocolitica [7]; sodium thiosulfate 0.88 mM after 4.00 mM cisplatin solution
  Number of survival bacteria (neutralization effect): 0.86 log10
Yersinia enterocolitica [7]; sodium thiosulfate 1.75 mM after 4.00 mM cisplatin solution
  Number of survival bacteria (neutralization effect): 1.28 log10
Yersinia enterocolitica [7]; sodium thiosulfate 3.5 mM after 4.00 mM cisplatin solution
  Number of survival bacteria (neutralization effect): 1.51 log10
Yersinia enterocolitica [7]; sodium thiosulfate 7 mM after 4.00 mM cisplatin solution
  Number of survival bacteria (neutralization effect): 1.98 log10
Yersinia enterocolitica [7]; sodium thiosulfate 14 mM after 4.00 mM cisplatin solution
  Number of survival bacteria (neutralization effect): 2.35 log10
Yersinia enterocolitica [7]; sodium thiosulfate 28 mM after 4.00 mM cisplatin solution
  Number of survival bacteria (neutralization effect): 4.22 log10
Yersinia enterocolitica [7]; sodium thiosulfate 56 mM after 4.00 mM cisplatin solution, 30 minutes, same as without cisplatin
  Number of survival bacteria (neutralization effect): 5.1 log10
SV-40
  killing effect (inactivation effect of SV-40) after neutralization: no killing effect
SV-40; 30 minutes, positive control 6.00 log10
  TCID50 after inactivator and neutralizing agent: 6.00 log10
